Article PMC11676762, “Control of Postharvest Green Mold in Citrus by the Antimicrobial Peptide BP15 and Its Lipopeptides” (Journal of Fungi, 2024)
≈ marks a conversion by molar mass, not a printed value. Where “and” joins values, the source holds several entries; their conditions need not be identical. Identical values can stand only once. Like-named read-outs stand apart in the source and are kept apart here. Marks after values point to notes of the source that are not given here.

Assays:
P. digitatum [1] = settings: for MFC: 50 μL from mycelium-free well plated on PDA, no pathogen growth; for MFC / MIC: 25 °C; for MIC: lowest peptide concentration completely inhibiting growth for 48 h, spores 1 × 10^4 CFU/mL, 5% PDB, triplicate
Protocol: The experiment was adapted from the method of Jia et al.. A 180 μL spore suspension (1 × 10^4 CFU/mL), containing 5% potato dextrose broth (PDB) by volume, was mixed with 20 μL of peptide solution in a sterile 96-well microplate and thoroughly mixed. The final peptide concentrations were 0.78, 1.56, 3.12, 6.25, 12.5, 25, 50, and 100 μM, with sterile water as the control. The mixtures were cultured in an incubator at 25 °C for 48 h, and the light absorption at OD600nm was measured using an 800TS full-wavelength microplate reader (Bio Tek Instruments, Inc., Winooski, VT, USA). The minimum inhibitory concentration (MIC) was defined as the lowest peptide concentration completely inhibiting fungus growth for 48 h. Then, a 50 μL sample from the mycelium-free well was plated on PDA and left to culture at 25 °C for 48 h. The minimum fungicidal concentration (MFC) was the peptide concentration at which there was no pathogen growth after 48 h.

P. digitatum mycelia [2] = test: Mycelial survival assay (MTT); assay type: cell-based, Penicillium digitatum; settings: 100 μM peptide, 3 h at 25 °C, then MTT 16 h; mean of triplicate
Protocol: The mycelial survival rate was determined according to by Weerden et al.. A spore suspension (5 × 10^4 CFU/mL) was prepared with 5% PDB and incubated for 24 h at 25 °C. […] The mixtures were cultured at 25 °C for 3 h before the addition of 10 μL of 3-(4,5-dimethylthiazol-2-yl)-2,5-diphenyltetrazolium bromide (MTT; 5 mg/mL; MACKLIN). The plates were then incubated in a dark environment for 16 h, followed by the addition of DMSO (100 μL).

P. digitatum mycelia [3] = test: Sytox Green fluorescence microscopy (membrane permeability); assay type: cell-based, Penicillium digitatum; settings: 2 h, Sytox Green 0.2 μM
Protocol: The experiment protocol was adapted from Li et al.. A spore suspension (10^5 CFU/mL) of 90 μL was prepared with 5% PDB and incubated for 24 h at 25 °C. Subsequently, the peptide solution was added to final concentrations of the MIC, the MFC, and 100 μM, and the mixtures were left for 2 h, with sterile water as the control. After incubation, Sytox Green (Molecular Probes; KeyGen Biotech Co., Nanjing, China) was added at 4 μM and thte final concentration was 0.2 μM and was incubated for 5 min in the dark. The treated samples were washed with sterile water, resuspended in 20% glycerol solution, and prepared and observed under a DM3000 fluorescence microscope (Leica, Weztlar, Germany).

P. digitatum genomic DNA = test: DNA binding gel retardation assay; design: species or system Penicillium digitatum; settings: peptide:DNA 1:1 (v/v), room temperature 30 min, 1% agarose gel
Protocol: In accordance with Miao et al. with slight adjustments, the gel retardation effect was analyzed. The P. digitatum DNA was extracted according to the operation steps of the TIANGEN plant genome DNA extraction kit. The agarose gel electrophoresis utilized a 1% agarose concentration. […] Electrophoresis was run at 110 V for 25 min, followed by the removal of the rubber plate and placement in the Tanon-2500B (Tanon Science and Technology Co., Ltd., Shanghai, China) for visualization.

P. digitatum [4] = test: Fruit decay test, green mold on mandarins; assay type: in vivo, Penicillium digitatum; settings: mean ± SD
Description: This experiment followed the method of Zhou et al. with some adjustments. The effects of three peptides on the control of green mold in citrus in vivo were studied by measuring the incidence rate and spot diameters on the citrus fruit. Mandarins were purchased from a local supermarket and selected for uniform size, ripeness, and a lack of mechanical damage. The mandarins were soaked in 75% alcohol for 30 s and then in 1% NaClO for 30 s, followed by rinsing with sterile water and drying with sterile paper to remove excess surface water. A sterile needle was used to drill holes near the equator (about 3 mm deep), and each mandarin was inoculated with 10 µL of 100 μM concentrations of three peptide solutions and 1 × 10^5 CFU/mL P. digitatum suspension (v/v 1:1), compared with a mixture of equal parts sterile water and P. digitatum suspension. The mandarins were placed in a […] container with sterile wet paper towels in order to preserve their freshness. A humid environment was maintained in the container, and the fruit was stored at room temperature. The incidence rate and spot diameter of the mandarins were measured in accordance with the method of Zhang et al.. Each treatment group contained eight fruits, and each treatment was repeated three times.

sheep red blood cells = settings: test range, significantly lower than commercial prochloraz (p < 0.05), results not yet published
P. digitatum [5] = settings: against P. digitatum; cited from earlier work
Description: Conidia generated by P. digitatum are disseminated to the surface of fruits via wind, rain, soil dust, and other media. Upon landing on the surface or wound of the fruit, these conidia promptly germinate, leading to fruit decay. […] In the present s ...

[6] = 5 d, 100 μM peptide + spores (1:1), three replicates
[7] = 6 d, 100 μM peptide + spores (1:1), three replicates
[8] = 7 d, 100 μM peptide + spores (1:1), three replicates
[9] = 8 d, 100 μM peptide + spores (1:1), three replicates
[10] = 9 d, 100 μM peptide + spores (1:1), three replicates
[11] = 10 d, 100 μM peptide + spores (1:1), three replicates

Compound | MFC (P. digitatum [1]; 48 h) [µM] | MIC (P. digitatum [1]; OD600nm) [µM] | mycelial survival rate (P. digitatum mycelia [2]) [%] | SG fluorescence in mycelia (P. digitatum mycelia [3]; peptide at 100 μM) | SG fluorescence in mycelia (P. digitatum mycelia [3]; peptide at 2 MIC) | SG fluorescence in mycelia (P. digitatum mycelia [3]; peptide at MIC) | peptide concentration at which DNA bands were no longer visible (P. digitatum genomic DNA) [µM] | Spot Diameter (P. digitatum [4]; [6]) | Incidence Rate (P. digitatum [4]; [7]) | Spot Diameter (P. digitatum [4]; [7]) | Incidence Rate (P. digitatum [4]; [8]) | Spot Diameter (P. digitatum [4]; [8]) | Incidence Rate (P. digitatum [4]; [9]) | Spot Diameter (P. digitatum [4]; [9]) | Incidence Rate (P. digitatum [4]; [10]) | Spot Diameter (P. digitatum [4]; [10]) | Incidence Rate (P. digitatum [4]; [11]) | Spot Diameter (P. digitatum [4]; [11]) | hemolytic activity (sheep red blood cells) | also measured
CCCCCCCCCCCC(=O)N[C@@H](CCCCN)C(=O)N[C@@H](CCCCN)C(=O)N[C@@H](CC(C)C)C(=O)N[C@@H](Cc1ccccc1)C(=O)N[C@@H](CCCCN)C(=O)N[C@@H](CCCCN)C(=O)N[C@H](C(=O)N[C@@H](CC(C)C)C(=O)N[C@@H](CCCCN)C(=O)N[C@H](C(=O)N[C@@H](CC(C)C)C(N)=O)C(C)C)[C@@H](C)CC [LBP15] | 6.25 (≈ 9.62 µg/mL) | 3.12 (≈ 4.8 µg/mL) | 10.40 | extensive continuous green fluorescence | enhanced fluorescence intensity and continuity | weak green fluorescence | 50 | 10.80 ± 4.93 ^b mm | 70.83 ± 19.09 ^b % | 21.23 ± 4.46 ^b mm | 80.83 ± 11.54 ^b % | 34.00 ± 10.39 ^b mm | 80.83 ± 11.54 ^b % | 45.60 ± 13.19 ^b mm | 80.83 ± 11.54 ^b % | 54.08 ± 12.44 ^b mm | 87.50% and 87.50 ± 0.00 ^a % | 69.6 ± 8.37 ^b mm | low hemolysis | inhibitory effect on P. digitatum growth (P. digitatum [1]; at 0.78 and 1.56 μM, 48 h, OD600nm): No obvious inhibitory effect
CC[C@H](C)[C@H](NC(=O)[C@H](CCCCN)NC(=O)[C@H](CCCCN)NC(=O)[C@H](Cc1ccccc1)NC(=O)[C@H](CC(C)C)NC(=O)[C@H](CCCCN)NC(=O)[C@@H](N)CCCCN)C(=O)N[C@@H](CC(C)C)C(=O)N[C@@H](CCCCN)C(=O)N[C@H](C(=O)N[C@@H](CC(C)C)C(N)=O)C(C)C [BP15] | 6.25 (≈ 8.48 µg/mL) | 3.12 (≈ 4.23 µg/mL) |  |  |  |  |  |  |  |  |  |  |  |  |  |  |  |  | low hemolysis | 
CCCCCC(=O)N[C@@H](CCCCN)C(=O)N[C@@H](CCCCN)C(=O)N[C@@H](CC(C)C)C(=O)N[C@@H](Cc1ccccc1)C(=O)N[C@@H](CCCCN)C(=O)N[C@@H](CCCCN)C(=O)N[C@H](C(=O)N[C@@H](CC(C)C)C(=O)N[C@@H](CCCCN)C(=O)N[C@H](C(=O)N[C@@H](CC(C)C)C(N)=O)C(C)C)[C@@H](C)CC [HBP15] | 6.25 (≈ 9.09 µg/mL) | 3.12 (≈ 4.54 µg/mL) | 16.31 | extensive continuous green fluorescence | enhanced fluorescence intensity and continuity | no fluorescence | 25 | 1.41 ± 0.80 ^c mm | 20.83 ± 7.22 ^c % | 4.45 ± 0.80 ^c mm | 37.50 ± 0.00 ^c % | 9.76 ± 0.84 ^c mm | 37.50 ± 0.00 ^c % | 14.81 ± 1.19 ^c mm | 37.50 ± 0.00 ^c % | 19.72 ± 1.95 ^c mm | 41.67 ± 7.22 ^b % | 23.27 ± 3.61 ^c mm | low hemolysis | Incidence Rate (P. digitatum [4]; 5 d, 10 µL of 100 μM peptide + 1 × 10^5 CFU/mL spores (1:1), room temperature, three replicates of eight fruits): 12.50 ± 0.00 ^c %
GHRKKWFW [PAF56, synthetic short cationic antimicrobial peptide (GHRKKWFW), literature comparator] |  |  |  |  |  |  |  |  |  |  |  |  |  |  |  |  |  |  |  | MIC (P. digitatum [5]): 8 µM
